Test results as given in US9795649B2, “Sesquiterpenoid-based compounds, extracts of Cyperus rotundus comprising the same, and use thereof” (RESEARCH & BUSINESS FOUNDATION SUNGKYUNKWAN UNIVERSITY, priority 2013, dated 2017).
“Also recorded” adds a separate entry of the source.

Legend:
Assay type in all cases: cell-based
[1] = test system: MCF-7-bus cells; assay: E-screen assay for estrogenic activity; conditions: isolated compounds; FIGS. 4A and 4B
Description: E-screen assay is a method of measuring estrogenic action of a substance, i.e., a method of utilizing the growth effect of MCF-7-bus, a breast cancer cell line with endogenous estrogen receptors (ER) expressed therein, which is stimulated by an estrogenic substance. In the present invention, estrogenic activities of the methanol extract and the organic solvent fraction thereof, the ethanol extract and the column fraction thereof were examined by E-screen assay.
(§1) In detail, MCF-7-bus cells were cultured in a 5% FBS DMEM medium and seeded in a 48-well plate at a density of 5×10^3 cells/well. The cells were cultured in a CO2 incubator at 37° C. for 48 hours, and then washed with a phenol red-free medium twice. The test materials were diluted with 5% CD-FBS DMEM at different concentrations, and then cells were treated therewith. The concentration of the solvent was in principle adjusted to 0.1%. After culturing for 144 hours (6 days), cells were fixed to the plate with TCA (Trichloroacetic acid) solution. The cells thus fixed were stained with SRB (Sulforhodamin B) dye, and the SRB dye remaining in the plate was removed by washing with acetic acid. The bound SRB dye was eluted from the cells with tris-base solution, and absorbance at 490 nm was measured to calculate the amount of SRB dye. Finally, estrogenic actions of the test materials were confirmed.

[2] = test system: MCF-7 bus cells; assay: E-screen assay with co-treatment of tamoxifen (estrogen receptor antagonist); conditions: tamoxifen 10^−6M; FIGS. 5A and 5B
Method: as §1
In detail, Tamoxifen is a representative estrogen receptor antagonist, and in this experiment, in order to examine whether the test materials show the estrogen receptor-mediated estrogenic actions, the test materials were mixed with tamoxifen (10^−6M) and MCF-7 bus cells were treated with the mixture to perform e-screen assay, and the results are shown in FIG. 5.

[3] = test system: MCF-7 bus cells; assay: E-screen assay with co-treatment of high or low concentration of estradiol (SERM function); conditions: for change in estrogenic activity by co-treatment of high concentration of estrogen: estradiol 10^−7M, FIGS. 6A and 6B; for change in estrogenic activity by co-treatment of low concentration of estrogen: estradiol 10^−13M, FIGS. 7A and 7B
Method: as §1
In detail, to examine whether the test materials function as an antagonist of estrogen at excessively high level of estrogen in the body, the test materials were mixed with high concentration of estradiol (10^−7M) and MCF-7 bus cells were treated with the mixture. To examine whether the test materials function as an agonist of estrogen at estrogen deficiency in the body, the test materials were mixed with a low concentration of estradiol (10^−13M) and MCF-7 bus cells were treated with the mixture. Then, e-screen assay was performed.

[4] = test system: RBL-2H3 cell line; assay: β-Hexosaminidase release assay for anti-allergic activity; conditions: Rattus norvegicus, 50 μg/ml, Mean ± SD, read-out: Degranulation-inhibitory activity (%, Mean ± SD)
Method: β-Hexosaminidase release assay is an experiment for examining anti-allergic activity by activating the RBL-2H3 cell line with an activating factor, treating the activated cells with an antigen, and then measuring the amount of released β-hexosaminidase to examine inhibitory effect on degranulation, and this assay was performed as follows.
In detail, the RBL-2H3 cell line was cultured in minimum essential media (hereinafter, referred to as EMEM) containing Eagle's salt supplemented with 15% fetal bovine serum and L-glutamine at 37° C. in a 5% CO2 incubator. Adherent cells were suspended by Trypsin-EDTA, and separated, recovered for use in the experiment. The RBL-2H3 cell line was activated with an activating factor (Dinitrophenol-conjugated human serum albumin, (DNP-HSA)-specific IgE), and then the activated cells were treated with 200 ng/mL of an antigen (DNP-HSA), and 0, 6.25, 12.5, 25, 50, or 100 μg/mL of the fraction of the extract of Cyperus rotundus was treated, respectively. Cells were incubated for 30 minutes. As a positive control, 50 μg/mL of ketotifen was used. Thereafter, the amount of β-hexosaminidase released to the medium was measured using a microplate spectrophotometer. Inhibition of β-hexosaminidase release means prevention of degranulation of immune cells.

Row | Molecule | estrogenic activity [1] | estrogenic activity by co-treatment with tamoxifen [2] | change in estrogenic activity by co-treatment of high concentration of estrogen [3] | change in estrogenic activity by co-treatment of low concentration of estrogen [3] | inhibition at 50 µg/mL [4] [%]
1 | C=C(C)[C@@H]1CC[C@@]2(C)CCC(=O)[C@@]3(C)O[C@@]23C1 [Compound [1], 4α,5α-oxidoeudesm-11-en-3-one] | excellent estrogenic activity; also recorded: high estrogenic activity | remarkably reduced activities | function as an estrogen inhibitor | function as an estrogen supplement | –
2 | C=C(C)C1CCC2(C)CCC(OC)C(C)=C2C1 (stereo not drawn) [Compound [6], 3α-methoxyeudesma-4,11-diene] | high estrogenic activity | remarkably reduced activities | function as an estrogen inhibitor | function as an estrogen supplement | 41.7 ± 5.4
3 | CN1CCC(=C2c3ccccc3CC(=O)c3sccc32)CC1 [Ketotifen, ketotifen, reference compound] | – | – | – | – | 50.5 ± 2.28
4 | cyper-11-ene-3,4-dione [Compound [2]] | high estrogenic activity | remarkably reduced activities | function as an estrogen inhibitor | function as an estrogen supplement | –
